Values of other authors as cited in patent publication US20120074308A1, “IMMUNOSUPPRESSANT MONITORING BY MALDI MASS SPECTROMETRY” (priority 2010, published 2012).

Details: for therapeutic window: immunosuppressants currently used for transplant patients, level in blood; for narrow therapeutic range: levels in whole blood

| narrow therapeutic range [ng/mL] | Structure (SMILES) | increased levels associated with high toxicity (thrombocytopenia, hyperlipidemia, high serum creatinine levels) (blood level) | therapeutic window [ng/mL] |
| --- | --- | --- | --- |
| 4 to 12 | CO[C@H]1C[C@@H]2CC[C@@H](C)[C@@](O)(O2)C(=O)C(=O)N2CCCC[C@H]2C(=O)O[C@H]([C@H](C)C[C@@H]2CC[C@@H](O)[C@H](OC)C2)CC(=O)[C@H](C)/C=C(\C)[C@@H](O)[C@@H](OC)C(=O)[C@H](C)C[C@H](C)/C=C/C=C/C=C/1C [Sirolimus] | above 15 nanogram per milliliter | 4 to 12 |
| 4 to 20 | C=CC[C@@H]1/C=C(\C)C[C@H](C)C[C@H](OC)[C@H]2O[C@@](O)(C(=O)C(=O)N3CCCC[C@H]3C(=O)O[C@H](/C(C)=C/[C@@H]3CC[C@@H](O)[C@H](OC)C3)[C@H](C)[C@@H](O)CC1=O)[C@H](C)C[C@@H]2OC [Tacrolimus] |  | 4 to 20 |
| 3 to 8 | CO[C@H]1C[C@@H]2CC[C@@H](C)[C@@](O)(O2)C(=O)C(=O)N2CCCC[C@H]2C(=O)O[C@H]([C@H](C)C[C@@H]2CC[C@@H](OCCO)[C@H](OC)C2)CC(=O)[C@H](C)/C=C(\C)[C@@H](O)[C@@H](OC)C(=O)[C@H](C)C[C@H](C)/C=C/C=C/C=C/1C [Everolimus] |  | 3 to 8 |
